From patent US20120220554A1, “Combretastatins for Prevention of Posterior Capsule Opacification” (OXIGENE, INC., priority 2010, published 2012)

What was measured:
[1] = test system: polymerized tubulin in BMI-immortalized bovine lens epithelial (BIE) cells; experiment: Dimer/polymer tubulin extraction and anti-tubulin western blot in BIE cells; assay type: cell-based; settings: single 30 min treatment with 1 μM CA4P, at 30 min after start and up to 24 h after end of exposure (FIG. 4)
Protocol: BMI-immortalized bovine lens epithelial (BIE) cells, on plastic, and primary bovine lens epithelial cells, on their original in vivo basement membrane, (the eye lens capsule), were cultured in 10% fetal calf serum (FCS)-supplemented medium at 37° C. prior to 30 min exposure to 1 μM CA4P, after which they were returned to 10% FCS-supplemented medium. The relatively short exposure was chosen to approximate the duration of a cataract surgery procedure. At a range of time points following exposure, cells were subjected to cell viability assay (MTT-based assay, PROMEGA, UK), immunoblotting or immunofluorescence.
BMI-immortalized bovine lens epithelial cells (BIE cell line, produced in Roy Quinlan's Laboratory, University of Durham, UK), were grown at 37° C., 5% CO2, in 10 cm diameter Petri dishes in 10% fetal calf serum (FCS)-supplemented tissue culture medium (Sigma-Aldrich, UK). When nearing confluence, they were exposed to 1 μM combretastatin A 4-phosphate (CA4P) (OXiGENE, UK) diluted in 10% FCS-supplemented medium for 30 min, after which the cells were returned to 10% FCS-supplemented medium. Immediately after the end of CA4P exposure, cells were extracted to assess the proportion of dimer/polymer tubulin, as described in Lieuvin et al., 1994 (J. Cell Biology 124 (6):985-996). […]
The proportion of dimer/polymer tubulin was assessed by western blotting. […]

[2] = test system: Primary bovine lens epithelial cells; experiment: Wound edge migration, multi-layering and EMT hallmarks of primary lens epithelial cells on the lens capsule; assay type: cell-based
Protocol: We tested CA4P as a potential inhibitor of lens epithelial cells epithelial-mesenchymal transition (EMT) during posterior capsular opacification (PCO), a common complication of cataract surgery. […] This effect persisted up to 48 h after CA4P exposure. Lens epithelial cell proliferation was also affected, as assayed by Ki67 immunofluorescence, MTT-based cell viability assays and cell cycle analysis by flow cytometry. Hallmarks of EMT, namely loss of cell polarity and migratory behavior, were also investigated in primary bovine lens epithelial cells grown on the lens capsule and were decreased by CA4P exposure, although cell multilayering seemed unaffected.
(FIG. 5). In addition, primary bovine lens epithelial cells grown on the lens capsule in serum-free conditions for 48 h move away from the wound edge.

BIE cells = experiment: MTT-based viable cell number assay in BIE cells; parameters: species or system bovine; settings: single 30 min treatment with 1 μM CA4P; over 72 h following treatment (FIG. 6)
Protocol: BMI-immortalized bovine lens epithelial cells (BIE cell line, produced in Roy Quinlan's Laboratory, University of Durham, UK), were seeded onto 12-well tissue culture plates in 10% fetal calf serum (FCS)-supplemented tissue culture medium (Sigma-Aldrich, UK) and kept at 37° C., 5% CO2 overnight. […] Viable cell number was assayed immediately and at 24 h, 48 h and 72 h after the end of exposure, using an MTT-based colorimetric assay (CellTiter95® Aqueous non-radioactive cell proliferation assay, Promega, UK), according to manufacturer's instructions. Briefly, the original cell culture medium was discarded from all wells and replaced by 500 µL of fresh medium, to which was added 100 µL of kit reagent. The wells were then returned to 37° C., 5% CO2 for 2 h 30 in the dark, after which […] were transferred from each well into a 96-well plate, which was read at 492 nm absorbance on an Anthos Lucy I (Anthos Labtech Instruments, Germany). The absorbance values were converted to cell numbers using standard curves specific to lens epithelial cells (determined in Roy Quinlan's laboratory, University of Durham, UK), and the viable cell numbers obtained were averaged with standard deviation. Significant differences in the values obtained between control and treated cells at different timepoints were assessed using an independent, two-tailed t-test.

phospho-Erk in BIE cells = experiment: Erk phosphorylation immunoblot in BIE cells; assay type: cell-based, bovine
Protocol: Phospho-Erk ½ levels were elevated immediately after the end of CA4P exposure in both control and treated cells and decreased 1 h after the end of CA4P exposure in both control and treated cells (FIG. 7). […] Therefore, it could be hypothesized that, in primary cells, a general stress response due to dissection will mask CA4P's effect on Erk phosphorylation. Phosphorylated p38 and JNK levels were not affected by CA4P treatment (data not shown).

[3] = 30 min exposure to 1 mM CA4P immediately after wounding, serum-free, 48 h (data not shown)

Compound: COc1ccc(/C=C\c2cc(OC)c(OC)c(OC)c2)cc1OP(=O)(O)O [CA4P, combretastatin A-4 phosphate]
- polymerized tubulin (western blot) [1]: loss of polymerized tubulin
- cell multi-layering [2, 3]: does not prevent cell multi-layering
- cells moving away from the wound edge [2, 3]: prevents the cells from leaving the wound edge
- hallmarks of EMT: loss of cell polarity and migratory behavior ([2]; primary bovine lens epithelial cells grown on the lens capsule): decreased
- number of BIE cells (viable cell number, MTT) (BIE cells): steady reduction in the number of BIE cells
- phospho-Erk levels (phospho-Erk in BIE cells; 1 h after the end of CA4P exposure): returned to control levels
- phospho-Erk levels (phospho-Erk in BIE cells; immediately after the end of CA4P exposure): elevated
